The test system of data set [1] is SHSY5Y cells. Description: Membrane toxicity modulation, immunocytochemistry in SHSY5Y cells. Format: cell-based. Particulars: Aβ42 pre-incubated 24 h with TGR63, 2 h treatment. As to the method:
Inspiring from the above-mentioned studies, membrane toxicity modulation ability of TGR63 through immunocytochemistry in SHSY5Y cells was also investigated. The cells were cultured in 35 mm confocal dishes and treated individually with Aβ42 samples, pre-incubated for 24 h in the presence and absence of TGR63 for 2 h under cell growing conditions. Then the experimental cells were washed and fixed using 4% paraformaldehyde (PFA) to probe the Aβ42 fibrils with OC (1:250) antibody, followed by red fluorescent labeled (λex= 633 nm and λem= 650 nm) secondary antibody (Alexa 633-A21052, Thermo). Finally, unbound antibody was washed and 4′,6-diamidino-2-phenylindole (DAPI) was used to stain the nucleus before the confocal imaging. For DAPI staining, experimental cells were incubated with DAPI (500 nM) solution (PBS) for 10 min at room temperature. Then, the cells were washed with PBS three times and imaged under confocal fluorescence microscope (λex= 358 nm, […]). FIG. 5 depicts the images obtained by nuclear staining of SHSY5Y cells with DAPI(blue) and Aβ42 fibrils staining with OC antibody and red fluorescent labelled secondary antibody.

In data set [2] the target is T1, Aβ42 (Homo sapiens, UniProt P05067).
T1 construct: commercially available β-amyloid peptide (1-42), human; purchased marck (so in the source) PP69-.025 mg
T1 sequence (P05067 672-713 limits assumed): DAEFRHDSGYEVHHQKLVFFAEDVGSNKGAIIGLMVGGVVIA
Description: ThT binding assay, inhibition of Aβ42 fibrillar assembly. Format: biochemical. The method, then: Monomeric form of Aβ42 peptide was prepared by dissolving 0.25 mg of commercially available β-amyloid peptide (1-42), human (cat: PP69-.025 mg), marck peptide in 250 µL of hexafluoro-2-propanol (HFIP) solvent to obtain a Aβ42 solution. This solution was incubated at room temperature for 1 hour, further to which the HFIP solvent was removed by nitrogen gas flow to obtain the monomeric Aβ42 peptide. To prepare a fibrillar sample of Aβ42 peptide, 0.025 mg of Aβ42 peptide was dissolved in […] of PBS buffer (pH = 7.4; contains 2% of DMSO or 100 mM NaOH) to obtain a monomeric Aβ42 solution and the peptide concentration in this solution was calculated through UV-Visible absorbance studies (ε = 1450 cm^-1 M^-1). The Aβ42 monomeric solution was incubated for 5 days in PBS buffer (pH = 7.4) to allow for the full phase formation of Aβ42 fibrils. The presence of Aβ42 fibrils was further confirmed by ThT assay.
Initially, the ability of the prepared NMI compounds, TGR63-68 to inhibit Aβ42 fibrillar assembly at 1:1 molar ratio with Aβ42 fibrils was evaluated using thioflavin (ThT) binding assay. 10 µM of Aβ42 fibrils in the absence (Ctrl) and the presence of 10 µM of inhibitors individually were incubated for 72 h. A normalized data for fluorescence intensity (NFI) of ThT at 482 nm (λex = 442 nm) was measured as represented in FIG. 1(a).
The ability of NMI compounds (TGR63, TGR64 and TGR65) to prevent Aβ42 fibrillar assembly (inhibition) and to break down the preformed fibrils (dissolution) was evaluated using thioflavin (ThT) binding assay. Aβ42 fibrils at a concentration of 10 µM and its aggregates, were used to study the effect of NMI compounds (TGR63, TGR64 and TGR65) at varying concentrations on both inhibition and dissolution assays. For the inhibition assay, all the NMI compounds (TGR63, TGR64 and TGR65) were added independently to Aβ peptide (10 µM) at 0 h of the experiment, whereas for the aggregates dissolution assay they were added to Aβ42 fibrillar aggregates grown for 2 days. Upon incubating for a predetermined period, Aβ42 inhibitor samples were analyzed using ThT by measuring the fluorescence change at 485 nm as presented in FIG. 1(b) and FIG. 1(c), wherein the error bars represent the standard deviation (SD) of the fluorescence measurement. Fluorescence values were normalized to maximal fluorescence intensity at 485 nm compared to that of the control (Aβ42 with no inhibitor). Experiments were performed at various stoichiometric ratios (Aβ42/inhibitor) of 1:1, 1:2, and 1:5 with a fixed concentration of Aβ42 at 10 µM. Each experiment was repeated three times (n = 3). […] TGR 63 recorded 80% dissolution efficiency while TGR 64 and TGR 65 recorded 75% and 78% dissolution efficiency respectively, for the stoichiometric ratio of 1:5.

Data set [3] in a line: MALDI mass analysis of blood serum after administration. Format: in vivo. Particulars: WT mice, 24 h after administration. The method, then: Pharmacokinetics of TGR63 in wild-type (WT) mice was performed to assess its in vivo efficacy. The lethal dose 50 (LD50) of TGR63 was determined in WT mice through intraperitoneal (IP) injection following the Organisation for Economic Cooperation and Development (OECD) guidelines. […] FIG. 7A illustrates the calculation of lethal dose 50% (LD50) of TGR63 through intraperitoneal administration and is represented as table of experimental details and the final observation was done on 14th day. FIG. 7B illustrates the mortality (%) plotted against TGR63 concentration and calculation of LD50. Twenty-five WT mice were segregated in five different groups (G1-5, N= 5 per group) and administered with varying doses of TGR63 (1.7, 5.5, 17.5 56.0 and 179.0 mg/kg body weight, respectively) through IP injection and their survival was monitored for 14 days. The serum stability and blood-brain barrier (BBB) crossing ability of TGR63 were assessed through matrix-assisted laser desorption ionization (MALDI) mass spectrometry analysis of blood and brain samples of vehicle and TGR63 treated mice. […] The partition coefficient (P), a valuable physical property was calculated to predict the BBB permeability. […] The calculated positive logP value predicts the possible BBB crossing ability for TGR63. […]

As to `CN(C)c1ccc(C#Cc2ccc3c4c(cccc24)C(=O)N(CC[N+](C)(C)C)C3=O)cc1` [TGR63, 2-(6-((4-(dimethylamino)phenyl)ethynyl)-1,3-dioxo-1H-benzo[de]isoquinolin-2(3H)-yl)-N,N,N-trimethylethan-1-aminium], the “OC red fluorescence signal of Aβ42 fibrils on plasma membrane” value in data set [1] is reported as “lower red fluorescence signal on the plasma membrane”. Moreover, the “inhibitory effect on Aβ42 aggregation (ThT NFI at 482 nm)” value in data set [2] (1:1 molar ratio, 10 µM Aβ42, 10 µM inhibitor, 72 h) is given as ~ 45%. The “decrease in the formation of Aβ aggregates” value in data set [2] (Aβ42/inhibitor 1:1, Aβ42 10 µM, third day of incubation) was ~ 50%. The “Aβ aggregation decreased to” value is recorded as 75% in data set [2] (Aβ42/inhibitor 1:2, Aβ42 10 µM, third day of incubation) and 90% in data set [2] (Aβ42/inhibitor 1:5, Aβ42 10 µM, third day of incubation). The “presence in blood (MALDI)” value in data set [3] is “confirmed the presence of TGR63 in blood after 24 h of administration”.
